Laboratory results taken from US20110039847A1, “AMIDE DERIVATIVES AS SIRTUIN MODULATORS” (Sirtris Pharmaceuticals, Inc, priority 2007, published 2011).
Counter-ions that a name gives are not always drawn.

Target: T1, SIRT1 (Homo sapiens, UniProt Q96EB6)
T1 sequence (Q96EB6 1-747): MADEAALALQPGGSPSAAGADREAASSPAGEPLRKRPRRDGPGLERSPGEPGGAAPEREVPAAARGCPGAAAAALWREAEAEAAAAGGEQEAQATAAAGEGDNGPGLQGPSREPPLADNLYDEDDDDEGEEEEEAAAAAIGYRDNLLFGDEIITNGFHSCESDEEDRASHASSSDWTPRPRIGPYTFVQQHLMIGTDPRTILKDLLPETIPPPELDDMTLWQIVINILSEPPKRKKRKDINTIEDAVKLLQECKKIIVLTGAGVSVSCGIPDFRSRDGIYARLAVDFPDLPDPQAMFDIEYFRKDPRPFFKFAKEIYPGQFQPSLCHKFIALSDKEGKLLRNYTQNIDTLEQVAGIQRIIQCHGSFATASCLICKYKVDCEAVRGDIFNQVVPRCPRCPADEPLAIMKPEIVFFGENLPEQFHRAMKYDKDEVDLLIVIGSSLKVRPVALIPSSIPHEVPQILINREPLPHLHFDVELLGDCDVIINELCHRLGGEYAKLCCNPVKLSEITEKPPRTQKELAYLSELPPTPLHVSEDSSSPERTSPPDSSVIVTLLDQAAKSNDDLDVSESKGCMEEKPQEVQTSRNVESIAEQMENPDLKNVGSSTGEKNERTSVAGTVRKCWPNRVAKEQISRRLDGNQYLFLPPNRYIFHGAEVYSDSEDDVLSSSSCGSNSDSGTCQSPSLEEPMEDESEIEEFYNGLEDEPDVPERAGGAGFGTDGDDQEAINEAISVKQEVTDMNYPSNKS
Assay: Mass spectrometry based SIRT1 deacetylation (activation) assay
Format: biochemical
Details: 0.5 μM peptide substrate, 120 μM βNAD+, 10 nM SIRT1, 25 min at 25° C.; for Emax: 25 min, read-out: % Fold Act. (percent maximum fold activation)
Source text: A mass spectrometry based assay was used to identify modulators of SIRT1 activity. The mass spectrometry based assay utilizes a peptide having 20 amino acid residues as follows: Ac-EE-K(biotin)-GQSTSSHSK(Ac)NleSTEG-K(5TMR)-EE-NH2 (SEQ ID NO: 1) wherein K(Ac) is an acetylated lysine residue and Nle is a norleucine. The peptide is labeled with the fluorophore 5TMR (excitation 540 nm/emission 580 nm) at the C-terminus. The sequence of the peptide substrate is based on p53 with several modifications. In addition, the methionine residue naturally present in the sequence was replaced with the norleucine because the methionine may be susceptible to oxidation during synthesis and purification.
The mass spectrometry assay is conducted as follows: 0.5 μM peptide substrate and 120 μM βNAD^+ is incubated with 10 nM SIRT1 for 25 minutes at 25° C. in a reaction buffer (50 mM Tris-acetate pH 8, 137 mM NaCl, 2.7 mM KCl, 1 mM MgCl2, 5 mM DTT, 0.05% BSA). Test compounds may be added to the reaction as described above. […] After the 25 minute incubation with SIRT1, 10 μL of 10% formic acid is added to stop the reaction. Reactions are sealed and frozen for later mass spec analysis. Determination of the mass of the substrate peptide allows for precise determination of the degree of acetylation (i.e. starting material) as compared to deacetylated peptide (product).
A control for inhibition of sirtuin activity is conducted by adding 1 μL of 500 mM nicotinamide as a negative control at the start of the reaction (e.g., permits determination of maximum sirtuin inhibition). A control for activation of sirtuin activity is conducted using 10 nM of sirtuin protein, with 1 μL of DMSO in place of compound, to determine the amount of deacetylation of the substrate at a given timepoint within the linear range of the assay. This timepoint is the same as that used for test compounds and, within the linear range, the endpoint represents a change in velocity.
For the above assay, SIRT1 protein was expressed and purified as follows. […] The protein was expressed by induction with 1 mM IPTG as an N-terminal His-tag fusion protein at 18° C. overnight and harvested at 30,000×g. Cells were lysed with lysozyme in lysis buffer (50 mM Tris-HCl, 2 mM Tris[2-carboxyethyl]phosphine (TCEP), 10 μM ZnCl2, 200 mM NaCl) and further treated with sonication for 10 min for complete lysis. The protein was purified over a Ni-NTA column (Amersham) and fractions containing pure protein were pooled, concentrated and run over a sizing column (Sephadex S200 26/60 global). The peak containing soluble protein was collected and run on an Ion-exchange column (MonoQ). Gradient elution (200 mM-500 mM NaCl) yielded pure protein. This protein was concentrated and dialyzed against dialysis buffer (20 mM Tris-HCl, 2 mM TCEP) overnight. The protein was aliquoted and frozen at −80° C. until further use.

| EC1.5 | Emax | Compound |
| --- | --- | --- |
| A (EC1.5≦1 uM) | ≥ 300% | O=C(Nc1ccccc1-c1nncs1)c1cc(NC(CO)CO)nc(-c2ccccc2)n1 [Compound 99] |
| A (EC1.5≦1 uM) | 150 to 300% | O=C(Nc1ccccc1-c1nnc(N2CCOCC2)s1)c1cc(N2CCOCC2)nc(-c2ccccc2)n1 [Compound 100] |
| A (EC1.5≦1 uM) | ≥ 300% | CN(C)CCNc1cc(C(=O)Nc2ccccc2-c2nnc(N3CCOCC3)s2)nc(-c2ccccc2)n1 [Compound 101] |
| A (EC1.5≦1 uM) | ≥ 300% | O=C(Nc1ccccc1-c1nnc(N2CCOCC2)s1)c1cc(NC(CO)CO)nc(-c2ccccc2)n1 [Compound 102] |
| A (EC1.5≦1 uM) | ≥ 300% | O=C1CN(c2cc(C(=O)Nc3ccccc3-c3nnc(N4CCOCC4)s3)nc(-c3ccccc3)n2)CCN1 [Compound 103] |
| A (EC1.5≦1 uM) | 150 to 300% | CCN1CCN(c2cc(C(=O)Nc3ccccc3-c3nnc(N4CCOCC4)s3)nc(-c3ccccc3)n2)CC1=O [Compound 104] |
| A (EC1.5≦1 uM) | ≥ 300% | CCN(CCN(C)C)c1cc(C(=O)Nc2ccccc2-c2nnc(N3CCOCC3)s2)nc(-c2ccccc2)n1 [Compound 105] |
| A (EC1.5≦1 uM) | 150 to 300% | COCCN(CCOC)c1cc(C(=O)Nc2ccccc2-c2nnc(N3CCOCC3)s2)nc(-c2ccccc2)n1 [Compound 106] |
| A (EC1.5≦1 uM) | 150 to 300% | CCN(CCOC)c1cc(C(=O)Nc2ccccc2-c2nnc(N3CCOCC3)s2)nc(-c2ccccc2)n1 [Compound 107] |
| A (EC1.5≦1 uM) | ≥ 300% | O=C(Nc1ccccc1-c1nnc(N2CCOCC2)s1)c1cc(OC[C@@H](O)CO)nc(-c2ccccc2)n1 [Compound 108] |
| A (EC1.5≦1 uM) | ≥ 300% | O=C(Nc1ccccc1-c1nnc(N2CCOCC2)s1)c1cc(OC[C@H](O)CO)nc(-c2ccccc2)n1 [Compound 109] |
| A (EC1.5≦1 uM) | ≥ 300% | O=C(Nc1ccccc1-c1nncs1)c1cc(OC[C@@H](O)CO)nc(-c2ccccc2)n1 [Compound 110] |
| A (EC1.5≦1 uM) | ≥ 300% | O=C(Nc1ccccc1-c1nncs1)c1cc(OCC(O)CO)nc(-c2ccccc2)n1 (centres unmarked) [Compound 111] |
| A (EC1.5≦1 uM) | ≥ 300% | CN1CCN(c2cc(C(=O)Nc3ccccc3-c3nncs3)nc(-c3ccccc3)n2)CC1=O [Compound 112] |
| A (EC1.5≦1 uM) | ≥ 300% | CCN(CCN(C)C)c1cc(C(=O)Nc2ccccc2-c2nnc(NC(=O)N3CCOCC3)s2)nc(-c2ccccc2)n1 [Compound 113] |
| A (EC1.5≦1 uM) | ≥ 300% | CCN(CCN(C)C)c1cc(C(=O)Nc2ccccc2-c2nnc(C(F)=C3CCOCC3)s2)nc(-c2ccccc2)n1 [Compound 114, 6-((2-(dimethylamino)ethyl)(ethyl)amino)-N-(2-(5-(fluoro(2H-pyran-4(3H,5H,6H)-ylidene)methyl)-1,3,4-thiadiazol-2-yl)phenyl)-2-phenylpyrimidine-4-carboxamide] |
| A (EC1.5≦1 uM) | ≥ 300% | CCN(CCN(C)C)c1cc(C(=O)Nc2ccccc2-c2nnc(SC)s2)nc(-c2ccccc2)n1 [Compound 115] |
| A (EC1.5≦1 uM) | ≥ 300% | CCN(CCN(C)C)c1cc(C(=O)Nc2ccccc2-c2nnc([S+](C)[O-])s2)nc(-c2ccccc2)n1 (centres unmarked) [Compound 116] |

The next lines start with the compound.

| Compound | EC1.5 | Emax |
| --- | --- | --- |
| CCN(CCN(C)C)c1cc(C(=O)Nc2ccccc2-c2nnc(C(C)C)s2)nc(-c2ccccc2)n1 [Compound 83] | A (EC1.5≦1 uM) | ≥ 300% |
| CCN(CCOC)c1cc(C(=O)Nc2ccccc2-c2ncc(C(C)(C)C)s2)nc(-c2ccccc2)c1 [Compound 84] | A (EC1.5≦1 uM) | 150 to 300% |
| CCN(CCOC)c1cc(C(=O)Nc2ccccc2-c2ncc(C(C)(C)C)o2)nc(-c2ccccc2)c1 [Compound 85] | A (EC1.5≦1 uM) | ≥ 300% |
| CCN(CCN(C)C)c1cc(C(=O)Nc2ccccc2-c2nnc(C(=O)NC)s2)nc(-c2ccccc2)n1 [Compound 86] | A (EC1.5≦1 uM) | 150 to 300% |
| CCN(CCN(C)C)c1cc(C(=O)Nc2ccccc2-c2nnc(C(=O)N3CCOCC3)s2)nc(-c2ccccc2)n1 [Compound 87] | A (EC1.5≦1 uM) | ≥ 300% |
| CN1CCN(c2cc(C(=O)Nc3ccccc3-c3nnc(C(=O)N4CCOCC4)s3)nc(-c3ccccc3)n2)CC1=O [Compound 88] | A (EC1.5≦1 uM) | ≥ 300% |
| O=C1CN(c2cc(C(=O)Nc3ccccc3-c3nnc(C(=O)N4CCOCC4)s3)nc(-c3ccccc3)n2)CCN1 [Compound 89] | A (EC1.5≦1 uM) | ≥ 300% |
| O=C(Nc1ccccc1-c1nnc(C(=O)N2CCOCC2)s1)c1cc(NC(CO)CO)nc(-c2ccccc2)n1 [Compound 90] | A (EC1.5≦1 uM) | ≥ 300% |
| O=C(Nc1ccccc1-c1nnc(C(=O)N2CCOCC2)s1)c1cc(OC[C@@H](O)CO)nc(-c2ccccc2)n1 [Compound 91] | A (EC1.5≦1 uM) | 150 to 300% |
| COCCN(CCOC)c1cc(C(=O)Nc2ccccc2-c2nnc(C(=O)N3CCOCC3)s2)nc(-c2ccccc2)n1 [Compound 92] | A (EC1.5≦1 uM) | ≥ 300% |
| CCN(CCN(C)C)c1cc(C(=O)Nc2ccccc2-c2nnc(C3CCOCC3)s2)nc(-c2ccccc2)n1 [Compound 93, 6-((2-(dimethylamino)ethyl)(ethyl)amino)-2-phenyl-N-(2-(5-(tetrahydro-2H-pyran-4-yl)-1,3,4-thiadiazol-2-yl)phenyl)pyrimidine-4-carboxamide hydrochloride] | A (EC1.5≦1 uM) | ≥ 300% |
| CCN1CCN(c2cc(C(=O)Nc3ccccc3-c3nnc(C4CCOCC4)s3)nc(-c3ccccc3)n2)CC1=O [Compound 94, 6-(4-ethyl-3-oxopiperazin-1-yl)-2-phenyl-N-(2-(5-(tetrahydro-2H-pyran-4-yl)-1,3,4-thiadiazol-2-yl)phenyl)pyrimidine-4-carboxamide] | A (EC1.5≦1 uM) | 150 to 300% |
| O=C1CN(c2cc(C(=O)Nc3ccccc3-c3nncs3)nc(-c3ccccc3)n2)CCN1 [Compound 95] | A (EC1.5≦1 uM) | ≥ 300% |
| CCN1CCN(c2cc(C(=O)Nc3ccccc3-c3nncs3)nc(-c3ccccc3)n2)CC1=O [Compound 96] | A (EC1.5≦1 uM) | 150 to 300% |
| CCN(CCN(C)C)c1cc(C(=O)Nc2ccccc2-c2nnc(C3CCOC3)s2)nc(-c2ccccc2)n1 (centres unmarked) [Compound 97, 6-((2-(dimethylamino)ethyl)(ethyl)amino)-2-phenyl-N-(2-(5-(tetrahydrofuran-3-yl)-1,3,4-thiadiazol-2-yl)phenyl)pyrimidine-4-carboxamide] | A (EC1.5≦1 uM) | ≥ 300% |
| CCN(CCN(C)C)c1cc(C(=O)Nc2ccccc2-c2nnc(NS(C)(=O)=O)s2)nc(-c2ccccc2)n1 [Compound 98] | A (EC1.5≦1 uM) | ≥ 300% |
